Source: patent US9598423B2 (BRISTOL-MYERS SQUIBB COMPANY, priority 2013, dated 2017)
Read-outs that look alike come from different tables or passages of the source.

What was measured:
CK1ε = CK1ε (Homo sapiens (Human), UniProt P49674); assay: CK1ε kinase assay (Caliper LABCHIP electrophoretic separation of fluoresceinated peptide substrate and product); assay type: biochemical; settings: 200 pM CK1ε, 50 μM ATP, 1.5 μM peptide substrate, 22 hours at room temperature; read-out: CK1ε (IC50)
Procedure, shortened: (§1)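 Each reaction was incubated 22 hours at room temperature and terminated with EDTA. Read-out was microfluidic electrophoretic separation of fluoresceinated substrate and phospho-product.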

CK1δ = CK1δ (Homo sapiens (Human), UniProt P48730); assay: CK1δ kinase assay (Caliper LABCHIP electrophoretic separation of fluoresceinated peptide substrate and product); assay type: biochemical
Procedure, shortened: as §1

[1] = 200 pM CK1δ, 50 μM ATP, 1.5 μM peptide substrate, 22 hours at room temperature, read-out: CK1δ (IC50)

Sequence of CK1δ (P48730 whole entry): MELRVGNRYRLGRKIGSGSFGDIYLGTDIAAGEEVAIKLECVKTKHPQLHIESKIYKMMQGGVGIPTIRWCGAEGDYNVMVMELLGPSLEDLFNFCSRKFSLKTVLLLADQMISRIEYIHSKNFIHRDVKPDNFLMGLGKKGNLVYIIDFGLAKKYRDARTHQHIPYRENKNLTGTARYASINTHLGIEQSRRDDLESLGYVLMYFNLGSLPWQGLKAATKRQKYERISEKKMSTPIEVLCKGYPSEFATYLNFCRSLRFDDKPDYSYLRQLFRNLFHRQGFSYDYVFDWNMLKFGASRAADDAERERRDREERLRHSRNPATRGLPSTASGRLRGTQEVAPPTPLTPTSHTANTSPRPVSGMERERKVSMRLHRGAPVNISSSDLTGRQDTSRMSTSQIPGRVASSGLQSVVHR
Sequence of CK1ε (P49674 whole entry): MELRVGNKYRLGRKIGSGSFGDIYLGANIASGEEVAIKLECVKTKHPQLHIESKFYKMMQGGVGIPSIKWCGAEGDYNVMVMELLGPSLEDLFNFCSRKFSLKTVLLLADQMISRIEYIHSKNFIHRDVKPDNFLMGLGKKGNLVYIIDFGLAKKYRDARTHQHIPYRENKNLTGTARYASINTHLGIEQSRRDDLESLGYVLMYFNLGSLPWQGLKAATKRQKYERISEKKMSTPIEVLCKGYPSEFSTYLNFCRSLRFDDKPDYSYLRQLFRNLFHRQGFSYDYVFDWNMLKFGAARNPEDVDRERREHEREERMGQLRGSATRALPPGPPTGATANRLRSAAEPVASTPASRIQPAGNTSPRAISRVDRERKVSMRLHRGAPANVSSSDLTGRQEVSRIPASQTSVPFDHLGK

Structure (SMILES) | IC50 (CK1ε) [nM] | IC50 (CK1δ; [1]) [nM] | IC50 (CK1δ; CK1δ (IC50, nM)) [nM]
N#Cc1ccc(NC(=O)N2CCn3nc(-c4cnc(F)c(Cl)c4)c(C(N)=O)c3C2)cc1 [Compound 293, 2-(5-Chloro-6-fluoropyridin-3-yl)-N^5-(4-cyanophenyl)-6,7-dihydropyrazolo[1,5-a] pyrazine-3,5(4H)-dicarboxamide] | 0.01 to 10 | 0.01 to 10 | 
Cc1cc(NC(=O)N2CCn3nc(-c4cnc(F)c(Cl)c4)c(C(N)=O)c3C2)ccc1C#N [Compound 294, 2-(5-Chloro-6-fluoropyridin-3-yl)-N^5-(4-cyano-3-methylphenyl)-6,7-dihydropyrazolo[1,5-a] pyrazine-3,5(4H)-dicarboxamide] | 0.01 to 10 | 0.01 to 10 | 
N#Cc1ccc(NC(=O)N2CCn3nc(-c4cnc(Cl)c(Cl)c4)c(C(N)=O)c3C2)cc1 [Compound 297, N^5-(4-Cyanophenyl)-2-(5,6-dichloropyridin-3-yl)-6,7-dihydropyrazolo[1,5-a]pyrazine-3,5(4H)-dicarboxamide] | 0.01 to 10 | 0.01 to 10 | 
NC(=O)c1c(-c2cncc(Cl)c2)nn2c1CN(C(=O)Nc1ccc(Cl)c(Cl)c1)CC2 [Compound 299, 2-(5-Chloropyridin-3-yl)-N^5-(3,4-dichlorophenyl)-6,7-dihydropyrazolo[1,5-a]pyrazine-3,5(4H)-dicarboxamide] | 0.01 to 10 | 0.01 to 10 | 
NC(=O)c1c(-c2cc(Cl)cc(Cl)c2)nn2c1CN(C(=O)Nc1ccc(Cl)c(Cl)c1)CC2 [Compound 302, N^5-(3,4-Dichlorophenyl)-2-(3,5-dichlorophenyl)-6,7-dihydropyrazolo[1,5-a] pyrazine-3,5(4H)-dicarboxamide] | 0.01 to 10 | 0.01 to 10 | 
COc1cccc(-c2nn3c(c2C(N)=O)CN(C(=O)Nc2ccc(Cl)c(Cl)c2)CC3)c1 [Compound 303, N^5-(3,4-Dichlorophenyl)-2-(3-methoxyphenyl)-6,7-dihydropyrazolo[1,5-a] pyrazine-3,5(4H)-dicarboxamide] | 0.01 to 10 | 0.01 to 10 | 
Cc1cc(NC(=O)N2CCn3nc(-c4cc(Cl)c5ocnc5c4)c(C(N)=O)c3C2)ccc1C#N [Compound 310, 2-(7-Chlorobenzo[d]oxazol-5-yl)-N^5-(4-cyano-3-methylphenyl)-6,7-dihydropyrazolo[1,5-a]pyrazine-3,5(4H)-dicarboxamide] | 0.01 to 10 | 0.01 to 10 | 
Cc1nc2cc(-c3nn4c(c3C(N)=O)CN(C(=O)Nc3ccc(C#N)cc3)CC4)cc(Cl)c2o1 [Compound 311, 2-(7-Chloro-2-methylbenzo[d]oxazol-5-yl)-N^5-(4-cyanophenyl)-6,7-dihydropyrazolo[1,5-a]pyrazine-3,5(4H)-dicarboxamide] | 0.01 to 10 | 0.01 to 10 | 
Cc1nc2cc(-c3nn4c(c3C(N)=O)CN(C(=O)Nc3ccc(C#N)c(Cl)c3)CC4)cc(Cl)c2o1 [Compound 312, 2-(7-Chloro-2-methylbenzo[d]oxazol-5-yl)-N^5-(3-chloro-4-cyanophenyl)-6,7-dihydropyrazolo[1,5-a]pyrazine-3,5(4H)-dicarboxamide] | 0.01 to 10 | 0.01 to 10 | 
Cc1nc2cc(-c3nn4c(c3C(N)=O)CN(C(=O)Nc3ccc(C#N)c(C)c3)CC4)cc(Cl)c2o1 [Compound 313, 2-(7-Chloro-2-methylbenzo[d]oxazol-5-yl)-N^5-(4-cyano-3-methylphenyl)-6,7-dihydropyrazolo[1,5-a]pyrazine-3,5(4H)-dicarboxamide] | 0.01 to 10 | 0.01 to 10 | 
Cc1nc2cc(-c3nn4c(c3C(N)=O)CN(C(=O)Nc3ccc(C#N)c(F)c3)CC4)cc(Cl)c2o1 [Compound 314, 2-(7-Chloro-2-methylbenzo[d]oxazol-5-yl)-N^5-(4-cyano-3-fluorophenyl)-6,7-dihydropyrazolo[1,5-a]pyrazine-3,5(4H)-dicarboxamide] | 0.01 to 10 | 0.01 to 10 | 
N#Cc1ccc(NC(=O)N2CCn3nc(-c4cc(Cl)c5[nH]ncc5c4)c(C(N)=O)c3C2)cc1F [Compound 316, 2-(7-Chloro-1H-indazol-5-yl)-N^5-(4-cyano-3-fluorophenyl)-6,7-dihydropyrazolo[1,5-a]pyrazine-3,5(4H)-dicarboxamide] | 0.01 to 10 | 0.01 to 10 | 
Cc1cc(NC(=O)N2CCn3nc(-c4cc(Cl)c5[nH]ncc5c4)c(C(N)=O)c3C2)ccc1C#N [Compound 317, 2-(7-Chloro-1H-indazol-5-yl)-N^5-(4-cyano-3-methylphenyl)-6,7-dihydropyrazolo[1,5-a]pyrazine-3,5(4H)-dicarboxamide] | 0.01 to 10 | 0.01 to 10 | 
Cn1ncc2cc(-c3nn4c(c3C(N)=O)CN(C(=O)Nc3ccc(C#N)cc3)CC4)cc(Cl)c21 [Compound 318, 2-(7-Chloro-1-methyl-1H-indazol-5-yl)-N^5-(4-cyanophenyl)-6,7-dihydropyrazolo[1,5-a]pyrazine-3,5(4H)-dicarboxamide] | 0.01 to 10 | 0.01 to 10 | 
Cc1n[nH]c2c(Cl)cc(-c3nn4c(c3C(N)=O)CN(C(=O)Nc3ccc(C#N)cc3)CC4)cc12 [Compound 320, 2-(7-Chloro-3-methyl-1H-indazol-5-yl)-N^5-(4-cyanophenyl)-6,7-dihydropyrazolo[1,5-a]pyrazine-3,5(4H)-dicarboxamide] | 0.01 to 10 | 0.01 to 10 | 
N#Cc1ccc(NC(=O)N2Cc3c(C(N)=O)c(-c4ccc(F)c(Cl)c4)nn3CC23CC3)cc1C(F)(F)F [Compound 345, 2′-(3-Chloro-4-fluorophenyl)-N^5′-(4-cyano-3-(trifluoromethyl)phenyl)-4′H-spiro[cyclopropane-1,6′-pyrazolo[1,5-a]pyrazine]-3′,5′(7′H)-dicarboxamide] | 10 to 100 |  | 10 to 100

Second part, led by results:

IC50 (CK1ε) [nM] | IC50 (CK1δ; [1]) [nM] | Structure (SMILES) | IC50 (CK1δ; CK1δ (IC50, nM)) [nM]
0.01 to 10 | 0.01 to 10 | Cc1nn(C)c2c(Cl)cc(-c3nn4c(c3C(N)=O)CN(C(=O)Nc3ccc(C#N)cc3)CC4)cc12 [Compound 322, 2-(7-Chloro-1,3-dimethyl-1H-indazol-5-yl)-N-(4-cyanophenyl)-6,7-dihydropyrazolo[1,5-a]pyrazine-3,5(4H)-dicarboxamide] | 
0.01 to 10 | 10 to 100 | N#Cc1ccc(NC(=O)N2CCn3nc(-c4cc(F)c5cn[nH]c5c4)c(C(N)=O)c3C2)cc1Cl [Compound 323, N^5-(3-Chloro-4-cyanophenyl)-2-(4-fluoro-1H-indazol-6-yl)-6,7-dihydropyrazolo[1,5-a]pyrazine-3,5(4H)-dicarboxamide] | 
0.01 to 10 | 0.01 to 10 | N#Cc1ccc(NC(=O)N2CCn3nc(-c4cc(F)c5cn[nH]c5c4)c(C(N)=O)c3C2)cc1F [Compound 324, N^5-(4-Cyano-3-fluorophenyl)-2-(4-fluoro-1H-indazol-6-yl)-6,7-dihydropyrazolo[1,5-a]pyrazine-3,5(4H)-dicarboxamide] | 
0.01 to 10 | 0.01 to 10 | Cc1cc(NC(=O)N2CCn3nc(-c4cc(F)c5cn[nH]c5c4)c(C(N)=O)c3C2)ccc1C#N [Compound 325, N^5-(4-Cyano-3-methylphenyl)-2-(4-fluoro-1H-indazol-6-yl)-6,7-dihydropyrazolo[1,5-a]pyrazine-3,5(4H)-dicarboxamide] | 
0.01 to 10 | 0.01 to 10 | Cn1ncc2c(F)cc(-c3nn4c(c3C(N)=O)CN(C(=O)Nc3ccc(C#N)cc3)CC4)cc21 [Compound 326, N^5-(4-Cyanophenyl)-2-(4-fluoro-1-methyl-1H-indazol-6-yl)-6,7-dihydropyrazolo[1,5-a]pyrazine-3,5(4H)-dicarboxamide] | 
10 to 100 | 10 to 100 | Cn1cc2c(F)cc(-c3nn4c(c3C(N)=O)CN(C(=O)Nc3ccc(C#N)cc3)CC4)cc2n1 [Compound 328] | 
100 to 2000 | 100 to 2000 | N#Cc1ccc(NC(=O)N2Cc3c(C(N)=O)c(-c4ccc(F)c(Cl)c4)nn3CC2C2CC2)cc1 (stereo not shown) [Compound 341] | 
10 to 100 | 10 to 100 | N#Cc1ccc(NC(=O)N2Cc3c(C(N)=O)c(-c4ccc(F)c(Cl)c4)nn3CC23CC3)cc1 [Compound 343, 2′-(3-Chloro-4-fluorophenyl)-N^5′-(4-cyanophenyl)-4′H-spiro[cyclopropane-1,6′-pyrazolo[1,5-a]pyrazine]-3′,5′(7′H)-dicarboxamide] | 
0.01 to 10 | 0.01 to 10 | Cc1cc(NC(=O)N2Cc3c(C(N)=O)c(-c4ccc(F)c(Cl)c4)nn3CC23CC3)ccc1C#N [Compound 344, 2′-(3-Chloro-4-fluorophenyl)-N^5′-(4-cyano-3-methylphenyl)-4′H-spiro[cyclopropane-1,6′-pyrazolo[1,5-a]pyrazine]-3′,5′(7′H)-dicarboxamide] | 
0.01 to 10 | 0.01 to 10 | N#Cc1ccc(NC(=O)N2Cc3c(C(N)=O)c(-c4ccc(F)c(Cl)c4)nn3[C@H]3COC[C@H]32)cc1 [Compound 347, (5aS,8aR)-2-(3-Chloro-4-fluorophenyl)-N^5-(4-cyanophenyl)-5a,6,8,8a-tetrahydrofuro[3,4-e]pyrazolo[1,5-a]pyrazine-3,5(4H)-dicarboxamide] | 
0.01 to 10 | 0.01 to 10 | N#Cc1ccc(NC(=O)N2Cc3c(C(N)=O)c(-c4ccc(Cl)c(Cl)c4)nn3[C@H]3COC[C@H]32)cc1 [Compound 349, (5aS,8aR)-N^5-(4-Cyanophenyl)-2-(3,4-dichlorophenyl)-5a,6,8,8a-tetrahydrofuro[3,4-e]pyrazolo[1,5-a]pyrazine-3,5(4H)-dicarboxamide] | 
0.01 to 10 | 0.01 to 10 | NC(=O)c1c(-c2cccc(Cl)c2)nn2c1CN(C(=O)Nc1cc(Cl)cc(Cl)c1)CC2CO (stereo not shown) [Compound A4, 2-(3-Chlorophenyl)-N^5-(3,5-dichlorophenyl)-7-(hydroxymethyl)-6,7-dihydropyrazolo[1,5-a]pyrazine-3,5(4H)-dicarboxamide] | 
0.01 to 10 | 0.01 to 10 | NC(=O)c1c(-c2cccc(Cl)c2)nn2c1CN(C(=O)Nc1ccc(N3CCCCC3)cc1)C[C@H]2CF [Compound A10, (S)-2-(3-Chlorophenyl)-7-(fluoromethyl)-N^5-(4-(piperidin-1-yl)phenyl)-6,7-dihydropyrazolo[1,5-a]pyrazine-3,5(4H)-dicarboxamide] | 
